Experimental data reported in article PMC6364417, “Kinase inhibitor library screening identifies synergistic drug combinations effective in sensitive and resistant melanoma cells” (Journal of Experimental & Clinical Cancer Research : CR, 2019).
Read-outs that look alike come from different tables or passages of the source.

How the values were obtained:
Assay in all cases: Kinase inhibitor library screening, PrestoBlue cell viability, 1 or 10 μM, 72 h
501Mel cells (parental) = conditions: for Cell viability in kinase inhibitor library screening, 501Mel Parental, 1μΜ / Cell viability in kinase inhibitor library screening, 501Mel Parental, 10μΜ: in %
Outline: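 Each compound was applied to parental melanoma cells and to derivatives made resistant to Vemurafenib or Dabrafenib. After treatment, viability was read with PrestoBlue on a plate reader and expressed as % of untreated cells, with each line run at least in duplicate.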

[1] = system: IGR37-XP cells (Vemurafenib-resistant)
[2] = system: 501Mel-XP cells (Vemurafenib-resistant); conditions: for Cell viability in kinase inhibitor library screening, 501Mel XP, 1μΜ / Cell viability in kinase inhibitor library screening, 501Mel XP, 10μΜ: in %
[3] = system: IGR37-GP cells (Dabrafenib-resistant); conditions: for Cell viability in kinase inhibitor library screening, IGR37 GP, 1μΜ: in %
[4] = system: 501Mel-GP cells (Dabrafenib-resistant); conditions: for Cell viability in kinase inhibitor library screening, 501Mel GP, 1μΜ / Cell viability in kinase inhibitor library screening, 501Mel GP, 10μΜ: in %
IGR37 cells (parental) = conditions: for Cell viability in kinase inhibitor library screening, IGR37 Parental, 1μΜ / Cell viability in kinase inhibitor library screening, IGR37 Parental, 10μΜ: in %
A375 cells (parental) = system: A375 cells (parental)
[5] = system: A375-XP cells (Vemurafenib-resistant)
[6] = system: A375-GP cells (Dabrafenib-resistant)

CCCCOc1c(C(=O)c2c(F)cc(C)cc2F)c[nH]c2nncc1-2 [BMS-265246]
cell viability (kinase inhibitor library screening) (501Mel cells (parental); 501Mel Parental, 1μΜ, 72 h): 92.4%
cell viability (kinase inhibitor library screening) (501Mel cells (parental); 501Mel Parental, 10μΜ, 72 h): 77.7%
cell viability (kinase inhibitor library screening) ([1]; IGR37 XP, 1μΜ, 72 h): 85.9%
cell viability (kinase inhibitor library screening) ([1]; IGR37 XP, 10μΜ, 72 h): 48.1%
cell viability (kinase inhibitor library screening) ([2]; 501Mel XP, 1μΜ, 72 h): 87.1%
cell viability (kinase inhibitor library screening) ([2]; 501Mel XP, 10μΜ, 72 h): 32.9%
cell viability (kinase inhibitor library screening) ([3]; IGR37 GP, 1μΜ, 72 h): 90.7%
cell viability (kinase inhibitor library screening) ([3]; IGR37 GP, 10μΜ, 72 h): 83.4%
cell viability (kinase inhibitor library screening) ([4]; 501Mel GP, 1μΜ, 72 h): 94.2%
cell viability (kinase inhibitor library screening) ([4]; 501Mel GP, 10μΜ, 72 h): 52.8%
cell viability (kinase inhibitor library screening) (IGR37 cells (parental); IGR37 Parental, 1μΜ, 72 h): 91.7%
cell viability (kinase inhibitor library screening) (IGR37 cells (parental); IGR37 Parental, 10μΜ, 72 h): 91.8%
cell viability (kinase inhibitor library screening) (A375 cells (parental); A375 Parental, 10μΜ, 72 h): 49.0%
cell viability (kinase inhibitor library screening) (A375 cells (parental); A375 Parental, 1μΜ, 72 h): 91.4%
cell viability (kinase inhibitor library screening) ([5]; A375 XP, 1μΜ, 72 h): 94.5%
cell viability (kinase inhibitor library screening) ([5]; A375 XP, 10μΜ, 72 h): 71.7%
cell viability (kinase inhibitor library screening) ([6]; A375 GP, 1μΜ, 72 h): 93.5%
cell viability (kinase inhibitor library screening) ([6]; A375 GP, 10μΜ, 72 h): 40.3%

CCN1CCN(c2ccc(Nc3cc(N(C)C(=O)Nc4c(Cl)c(OC)cc(OC)c4Cl)ncn3)cc2)CC1 [BGJ398 (NVP-BGJ398)]
viability at 1 µM (501Mel cells (parental); Homo sapiens, 72 h, read-out: cell viability, 501Mel Parental, 1μΜ): 96.6%
viability at 10 µM (501Mel cells (parental); Homo sapiens, 72 h, read-out: cell viability, 501Mel Parental, 10μΜ): 0.424%
viability at 1 µM ([1]; Homo sapiens, IGR-37, 72 h, read-out: cell viability, IGR37 XP, 1μΜ): 97.5%
viability at 10 µM ([1]; Homo sapiens, IGR-37, 72 h, read-out: cell viability, IGR37 XP, 10μΜ): 1%
viability at 1 µM ([2]; Homo sapiens, 72 h, read-out: cell viability, 501Mel XP, 1μΜ): 97.9%
viability at 10 µM ([2]; Homo sapiens, 72 h, read-out: cell viability, 501Mel XP, 10μΜ): -0.109%
viability at 1 µM ([3]; Homo sapiens, IGR-37, 72 h, read-out: cell viability, IGR37 GP, 1μΜ): 87.7%
viability at 10 µM ([3]; Homo sapiens, IGR-37, 72 h, read-out: cell viability, IGR37 GP, 10μΜ): 3.2%
viability at 1 µM ([4]; Homo sapiens, 72 h, read-out: cell viability, 501Mel GP, 1μΜ): 108%
viability at 10 µM ([4]; Homo sapiens, 72 h, read-out: cell viability, 501Mel GP, 10μΜ): 0.142%
viability at 1 µM (IGR37 cells (parental); Homo sapiens, IGR-37, 72 h, read-out: cell viability, IGR37 Parental, 1μΜ): 100%
viability at 10 µM (IGR37 cells (parental); Homo sapiens, IGR-37, 72 h, read-out: cell viability, IGR37 Parental, 10μΜ): 4.3%
viability at 1 µM (A375 cells (parental); Homo sapiens, A-375, 72 h, read-out: cell viability, A375 Parental, 1μΜ): 101%
viability at 10 µM (A375 cells (parental); Homo sapiens, A-375, 72 h, read-out: cell viability, A375 Parental, 10μΜ): 9%
viability at 1 µM ([5]; Homo sapiens, A-375, 72 h, read-out: cell viability, A375 XP, 1μΜ): 104%
viability at 10 µM ([5]; Homo sapiens, A-375, 72 h, read-out: cell viability, A375 XP, 10μΜ): 3.9%
viability at 1 µM ([6]; Homo sapiens, A-375, 72 h, read-out: cell viability, A375 GP, 1μΜ): 101%
viability at 10 µM ([6]; Homo sapiens, A-375, 72 h, read-out: cell viability, A375 GP, 10μΜ): 6.6%

CC(=O)Nc1nc(C)c(-c2ccc(Cl)c(S(=O)(=O)NCCO)c2)s1 [PIK-93]
Cell viability in kinase inhibitor library screening, 501Mel Parental, 1μΜ (501Mel cells (parental)): 88.1
Cell viability in kinase inhibitor library screening, 501Mel Parental, 10μΜ (501Mel cells (parental)): 25.0
Cell viability in kinase inhibitor library screening, IGR37 XP, 10μΜ [1]: 27.5%
Cell viability in kinase inhibitor library screening, IGR37 XP, 1μΜ ([1]; in %): 84.1
Cell viability in kinase inhibitor library screening, 501Mel XP, 1μΜ [2]: 90.7
Cell viability in kinase inhibitor library screening, 501Mel XP, 10μΜ [2]: 10.6
Cell viability in kinase inhibitor library screening, IGR37 GP, 10μΜ [3]: 59.9%
Cell viability in kinase inhibitor library screening, IGR37 GP, 1μΜ [3]: 91.0
Cell viability in kinase inhibitor library screening, 501Mel GP, 1μΜ [4]: 98.2
Cell viability in kinase inhibitor library screening, 501Mel GP, 10μΜ [4]: 25.1
Cell viability in kinase inhibitor library screening, IGR37 Parental, 1μΜ (IGR37 cells (parental)): 96.9
Cell viability in kinase inhibitor library screening, IGR37 Parental, 10μΜ (IGR37 cells (parental)): 72.6
Cell viability in kinase inhibitor library screening, A375 Parental, 1μΜ (A375 cells (parental)): 97.3
Cell viability in kinase inhibitor library screening, A375 Parental, 10μΜ (A375 cells (parental)): 47.7
Cell viability in kinase inhibitor library screening, A375 XP, 1μΜ [5]: 88.7
Cell viability in kinase inhibitor library screening, A375 XP, 10μΜ [5]: 36.0
Cell viability in kinase inhibitor library screening, A375 GP, 1μΜ [6]: 97.8
Cell viability in kinase inhibitor library screening, A375 GP, 10μΜ [6]: 37.8

Nc1nc(N)c2nc(-c3cccc(O)c3)c(-c3cccc(O)c3)nc2n1 [TG100-115]
Cell viability in kinase inhibitor library screening, 501Mel Parental, 1μΜ (501Mel cells (parental); 501Mel Parental, 1μΜ, 72 h): 99.2
Cell viability in kinase inhibitor library screening, 501Mel Parental, 10μΜ (501Mel cells (parental); 501Mel Parental, 10μΜ, 72 h): 89.6
Cell viability in kinase inhibitor library screening, IGR37 XP, 10μΜ ([1]; IGR37 XP, 10μΜ, 72 h): 70.9%
Cell viability in kinase inhibitor library screening, 501Mel XP, 1μΜ ([2]; 501Mel XP, 1μΜ, 72 h): 97.0
Cell viability in kinase inhibitor library screening, 501Mel XP, 10μΜ ([2]; 501Mel XP, 10μΜ, 72 h): 81.6
Cell viability in kinase inhibitor library screening, IGR37 GP, 10μΜ ([3]; IGR37 GP, 10μΜ, 72 h): 89.4%
Cell viability in kinase inhibitor library screening, IGR37 GP, 1μΜ ([3]; IGR37 GP, 1μΜ, 72 h): 96.0
Cell viability in kinase inhibitor library screening, 501Mel GP, 1μΜ ([4]; 501Mel GP, 1μΜ, 72 h): 107.0
Cell viability in kinase inhibitor library screening, 501Mel GP, 10μΜ ([4]; 501Mel GP, 10μΜ, 72 h): 81.4
Cell viability in kinase inhibitor library screening, IGR37 Parental, 1μΜ (IGR37 cells (parental); IGR37 Parental, 1μΜ, 72 h): 97.1
Cell viability in kinase inhibitor library screening, IGR37 Parental, 10μΜ (IGR37 cells (parental); IGR37 Parental, 10μΜ, 72 h): 98.5
Cell viability in kinase inhibitor library screening, A375 Parental, 10μΜ (A375 cells (parental); A375 Parental, 10μΜ, 72 h): 88.3
Cell viability in kinase inhibitor library screening, A375 Parental, 1μΜ (A375 cells (parental); A375 Parental, 1μΜ, 72 h): 100.3
Cell viability in kinase inhibitor library screening, A375 XP, 1μΜ ([5]; A375 XP, 1μΜ, 72 h): 103.9
Cell viability in kinase inhibitor library screening, A375 GP, 1μΜ ([6]; A375 GP, 1μΜ, 72 h): 100.0
Cell viability in kinase inhibitor library screening, A375 GP, 10μΜ ([6]; A375 GP, 10μΜ, 72 h): 91.7
